In article PMC11475408, “All‐Inorganic Polyoxometalates Act as Superchaotropic Membrane Carriers” (Advanced Materials (Deerfield Beach, Fla.), 2023):

How the values were obtained:
[1] = U-tube transport experiment through CHCl3; details: CHCl3 bulk phase; CF 100, POM 50, heptaArg 10 µM; 24 h; fluorescence
Text: In the U‐tube experiments, the trans phase contained only buffer, and the cis phase is loaded with combinations of CF, carrier (POM), and cargo (heptaArg). Aliquots of the trans phase are taken and evaluated by fluorescence at different times. The trans phase is initially (t = 0) nonfluorescent, but the transport of CF from the cis phase through the chloroform barrier leads to fluorescence, signaling successful transport. […] This is consistent with translocation of a POM•heptaArg•CF complex through the organic phase, in support of the mechanism in Figure 1c.
The U‐tubes were house‐made, similar to those of Rebek^[ [82] ^] and Matile,^[ [54] ^] consisting in a small beaker with a central glass barrier, separating the two aqueous layers, cis ([…]) and trans (receiving phase), but allowing an interface chloroform layer below the cis and trans phases. 3 mL CHCl3 are placed into the U‐tube and 1 mL of the cis (combinations of carrier (POM), cargo (heptaArg) and CF in buffer) and trans (1 mL buffer) phases were added. The organic phase was stirred at 700 rpm at room temperature. Aliquots (25 µL) from the trans phase were taken at different times, 400 µL of buffer were added and measured by fluorescence.

cationic oligopeptides = test: ITC, POM with the peptides (general statement); assay type: binding
Experimental: To affect membrane transport, any carrier needs to display an affinity toward the cargo as well as toward the lipid bilayer. Accordingly, the interaction between [PVW11]^4‒ and [SiMoW11]^4‒ and the peptides was analyzed by isothermal titration calorimetry (ITC, Figure 2c,d; and Figures S10 and S11, Supporting Information). […] (enthalpically driven, interaction with the peptide backbones, Table S6, Supporting Information) and Coulombic interactions (interaction with arginine and lysine side chains). The strong but reversible intermolecular interactions between the low‐charged POMs and the cationic oligopeptides present an interesting finding, which was measured for both, oligo‐ and polypeptides. Previous ITC studies have focused only on the binding of proteins with highly charged and therefore weakly chaotropic POMs (n < −6, Table S3, Supporting Information), where electrostatic interactions were implied as main driving force.^[ [65], [66], [67], [68], [69], [70], [71], [72], [73] ^]
All experiments were performed with a VP‐ITC MicroCalorimeter from MicroCal, Int,. at atmospheric pressure and 298.15 K. Solutions were degassed and thermostatic prior to the titration experiments in a ThermoVac accessory. […] Dilution heats were determined by titration of the POM into buffer and subtracted from the reaction heat. […]

heptalysine = test: ITC, POM into heptalysine; assay type: binding; details: 10 mM Tris, pH 7.4, value is Ka divided by 10^7
Experimental: (§1) All experiments were performed with a VP‐ITC MicroCalorimeter from MicroCal, Int,. at atmospheric pressure and 298.15 K. Solutions were degassed and thermostatic prior to the titration experiments in a ThermoVac accessory. A constant volume of POM ([PVW11]^4‒ or [SiMoW11]^4‒) (10 µL per injection) was injected into the oligopeptide solution (heptaArg, protamine, polyArg or heptaLys) in 10 mM Tris, pH 7.4 to determine the apparent binding affinity of [PVW11]^4‒ and [SiMoW11]^4‒ with the oligopeptides. Dilution heats were determined by titration of the POM into buffer and subtracted from the reaction heat. The neat reaction heat was fitted with Origin 7.0 software by using the “one‐set‐of‐sites” model to obtain the complex stability constant (K a) and molar reaction enthalpy (∆H°). The free energy (∆G°) and entropy changes (∆S°) were obtained according to the relation: ∆G° = −RTlnK a = ∆H°−T∆S°.
(§2) Figure S11. Microcalorimetric titrations in 10 mM Tris, pH 7.4: Raw ITC data (top) for the sequential injections of POM solution into a heptalysine solution, and apparent reaction heats (bottom) obtained from the integration of the calorimetric traces. POM/heptalysine concentrations in µM: a, 200/8 and b, 150/10. Error data is 5% for the n values and ± 0.5 kcal mol‒1 for ΔH and TΔS (duplicate […]
Table S6. […]

heptaarginine = test: ITC, POM into heptaarginine; assay type: binding; details: 10 mM Tris; for Ka/ 107, heptaarginine: pH 7.4, 298.15 K, value is Ka divided by 10^7, duplicates; for Ka, heptaarginine (Figure 2c,d): pH 7.4, POM/oligoarginine 100/8 and 200/10 µM
Experimental: as §1
(§3) 4. Supramolecular interactions
(§4) Figure S10. Microcalorimetric titrations in 10 mM Tris, pH 7.4: Raw ITC data (top) for the sequential injections of POM solution into an oligoarginine solution, and apparent reaction heats (bottom) obtained from the integration of the calorimetric traces. […]
(§5) values and ± 0.5 kcal mol‒1 for ΔH and TΔS (duplicate measurements). Note that none of these interactions lead to any precipitation or aggregates, confirmed by the absence of any detectable signal by DLS. […]
as §2
Table S6. Binding constants (Ka in M‒1) and thermodinamic data (in kcal mol‒1) measured for the complex formation between the stable and active POMs and oligoarginines in 10 mM Tris, pH 7.4. a) […]
a) Error data is 5% for the n values and ± 0.5 kcal mol‒1 for ΔH and TΔS (duplicate measurements).

polyarginine = test: ITC, POM into polyarginine; assay type: binding; details: 10 mM Tris, pH 7.4, value is Ka divided by 10^7
Experimental: as §1, §3, §4, §5

Substance	Carrier behaviour in U-tube (CF in trans phase) [1]	Supramolecular interaction with the peptides (order of magnitude) (cationic oligopeptides)	Ka/ 107, heptalysine (heptalysine) [M‒1]	Ka/ 107, heptaarginine (heptaarginine) [M‒1]	Ka, heptaarginine (Figure 2c,d) (heptaarginine) [M⁻¹]	Ka/ 107, polyarginine (polyarginine) [M‒1]
K4[α‐Si^IVMo^VIW^VI 11O40]·24H2O [[SiMoW11]^4‒]	act as “real” carriers	~10^7 M ^−1	4.1	0.6	6.3e+06	1.6
K4[α‐P^VV^VW^VI 11O40]·4H2O [[PVW11]^4‒]	act as “real” carriers	~10^7 M ^−1	2.8	5.7	5.7e+07	3.5
